Laboratory results taken from patent publication US10597388B2, “Pyridazinone herbicides” (FMC CORPORATION, priority 2014, dated 2020).

Tests used:
Type in all cases: in vivo
[1] = test system: foxtail, giant (giant foxtail, Setaria faberii); assay: Test C greenhouse herbicide test, pre- and postemergence
Outline: (§1)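 Visual 0–100 injury score (100 = complete control) taken against untreated controls after 13–15 d in greenhouse. Test chemicals, formulated in solvent plus surfactant, applied preemergence to seeds in loam–sand soil or postemergence to 1- to 4-leaf plants (2–18 cm).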

[2] = test system: johnsongrass (Sorghum halepense); assay: as above
Outline: as §1

soybean (Glycine max) = assay: as above
Outline: as §1

[3] = test system: ragweed (common ragweed, Ambrosia elatior); assay: as above
Outline: as §1

corn (Zea mays) = assay: as above
Outline: as §1

[4] = test system: wheat (winter wheat, Triticum aestivum); assay: as above
Outline: as §1

[5] = test system: pigweed (Amaranthus retroflexus); assay: as above
Outline: as §1

[6] = test system: ryegrass, Italian (Italian ryegrass, Lolium multiflorum); assay: as above
Outline: as §1

[7] = test system: crabgrass, large (large crabgrass, Digitaria sanguinalis); assay: as above
Outline: as §1

[8] = test system: waterhemp (common waterhemp, Amaranthus rudis); assay: as above
Outline: as §1

[9] = test system: barnyardgrass (Echinochloa crus-galli); assay: as above
Outline: as §1

[10] = test system: morningglory (Ipomoea coccinea); assay: as above
Outline: as §1

[11] = test system: lambsquarters (Chenopodium album); assay: as above
Outline: as §1

[12] = test system: blackgrass (Alopecurus myosuroides); assay: as above
Outline: as §1

[13] = test system: oat, wild (wild oat, Avena fatua); assay: Test C greenhouse herbicide test, postemergence
Outline: (§2)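 Seedlings are raised in pots of peat moss–vermiculite medium with starter nutrients, then receive postemergence test chemical at the 1- to 4-leaf stage. They are kept in the greenhouse 13 to 15 d and scored visually versus controls, 0 meaning no effect and 100 complete control.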

kochia (Kochia scoparia) = assay: Test C greenhouse herbicide test, postemergence
Outline: as §2

[14] = Postemergence, 31 g ai/ha, 0 to 100 scale (0 no effect, 100 complete control)
[15] = Postemergence, 125 g ai/ha, scale 0 to 100, 0 is no effect, 100 is complete control
[16] = Postemergence, 250 g ai/ha, scale 0 to 100, 0 no effect, 100 complete control, 13 to 15 d
[17] = Preemergence, 31 g ai/ha, scale 0 to 100, 0 is no effect, 100 is complete control
[18] = Preemergence, 62 g ai/ha, scale 0 to 100, 0 is no effect, 100 is complete control
[19] = Preemergence, 125 g ai/ha, scale 0 to 100, 0 is no effect, 100 is complete control
[20] = Preemergence, 250 g ai/ha, scale 0 to 100 (0 no effect, 100 complete control)
[21] = postemergence, 62 g ai/ha, scale 0 to 100, 0 no effect, 100 complete control

SMILES: Cc1ccc2ccccc2c1-c1c(O)c(C)nn(C)c1=O [Compound 59]
- Foxtail, Giant plant response rating [1, 14]: 45
- Plant response rating, Foxtail, Giant [1, 15]: 85
- Plant response rating, Foxtail, Giant [1, 16]: 90
- Plant response rating, Foxtail, Giant [1, 17]: 80
- Plant response rating, Foxtail, Giant [1, 18]: 95
- Plant response rating, Foxtail, Giant [1, 19]: 98
- Foxtail, Giant plant response rating [1, 20]: 100
- Foxtail, Giant plant response rating [1, 21]: 60
- Johnsongrass plant response rating [2, 14]: 5
- Plant response rating, Johnsongrass [2, 15]: 25
- Plant response rating, Johnsongrass [2, 16]: 35
- Plant response rating, Johnsongrass [2, 17]: 5
- Plant response rating, Johnsongrass [2, 18]: 25
- Plant response rating, Johnsongrass [2, 19]: 45
- Johnsongrass plant response rating [2, 20]: 65
- Johnsongrass plant response rating [2, 21]: 5
- Soybean plant response rating (soybean (Glycine max); [14]): 0
- Plant response rating, Soybean (soybean (Glycine max); [15]): 10
- Plant response rating, Soybean (soybean (Glycine max); [16]): 25
- Plant response rating, Soybean (soybean (Glycine max); [17]): 0
- Plant response rating, Soybean (soybean (Glycine max); [18]): 0
- Plant response rating, Soybean (soybean (Glycine max); [19]): 15
- Soybean plant response rating (soybean (Glycine max); [20]): 25
- Soybean plant response rating (soybean (Glycine max); [21]): 15
- Ragweed plant response rating [3, 14]: 90
- Plant response rating, Ragweed [3, 15]: 95
- Plant response rating, Ragweed [3, 16]: 98
- Plant response rating, Ragweed [3, 17]: 90
- Plant response rating, Ragweed [3, 18]: 95
- Plant response rating, Ragweed [3, 19]: 100
- Ragweed plant response rating [3, 20]: 100
- Ragweed plant response rating [3, 21]: 95
- Corn plant response rating (corn (Zea mays); [14]): 5
- Plant response rating, Corn (corn (Zea mays); [15]): 65
- Plant response rating, Corn (corn (Zea mays); [16]): 50
- Plant response rating, Corn (corn (Zea mays); [17]): 0
- Plant response rating, Corn (corn (Zea mays); [18]): 20
- Plant response rating, Corn (corn (Zea mays); [19]): 50
- Corn plant response rating (corn (Zea mays); [20]): 65
- Corn plant response rating (corn (Zea mays); [21]): 45
- Wheat plant response rating [4, 14]: 0
- Plant response rating, Wheat [4, 15]: 10
- Plant response rating, Wheat [4, 16]: 15
- Plant response rating, Wheat [4, 17]: 60
- Plant response rating, Wheat [4, 18]: 60
- Plant response rating, Wheat [4, 19]: 75
- Wheat plant response rating [4, 20]: 85
- Wheat plant response rating [4, 21]: 20
- Pigweed plant response rating [5, 14]: 90
- Plant response rating, Pigweed [5, 15]: 95
- Plant response rating, Pigweed [5, 16]: 98
- Plant response rating, Pigweed [5, 17]: 100
- Plant response rating, Pigweed [5, 18]: 100
- Plant response rating, Pigweed [5, 19]: 100
- Pigweed plant response rating [5, 20]: 100
- Pigweed plant response rating [5, 21]: 95
- Ryegrass, Italian plant response rating [6, 14]: 85
- Plant response rating, Ryegrass, Italian [6, 15]: 90
- Plant response rating, Ryegrass, Italian [6, 16]: 95
- Plant response rating, Ryegrass, Italian [6, 17]: 100
- Plant response rating, Ryegrass, Italian [6, 18]: 100
- Plant response rating, Ryegrass, Italian [6, 19]: 100
- Ryegrass, Italian plant response rating [6, 20]: 100
- Ryegrass, Italian plant response rating [6, 21]: 90
- Crabgrass, Large plant response rating [7, 14]: 15
- Plant response rating, Crabgrass, Large [7, 15]: 25
- Plant response rating, Crabgrass, Large [7, 16]: 60
- Plant response rating, Crabgrass, Large [7, 17]: 25
- Plant response rating, Crabgrass, Large [7, 18]: 70
- Plant response rating, Crabgrass, Large [7, 19]: 85
- Crabgrass, Large plant response rating [7, 20]: 100
- Crabgrass, Large plant response rating [7, 21]: 20
- Waterhemp plant response rating [8, 14]: 85
- Plant response rating, Waterhemp [8, 15]: 98
- Plant response rating, Waterhemp [8, 16]: 100
- Plant response rating, Waterhemp [8, 17]: 95
- Plant response rating, Waterhemp [8, 18]: 100
- Plant response rating, Waterhemp [8, 19]: 100
- Waterhemp plant response rating [8, 20]: 100
- Waterhemp plant response rating [8, 21]: 90
- Barnyardgrass plant response rating [9, 14]: 20
- Plant response rating, Barnyardgrass [9, 15]: 55
- Plant response rating, Barnyardgrass [9, 16]: 70
- Plant response rating, Barnyardgrass [9, 17]: 30
- Plant response rating, Barnyardgrass [9, 18]: 70
- Plant response rating, Barnyardgrass [9, 19]: 90
- Barnyardgrass plant response rating [9, 20]: 95
- Barnyardgrass plant response rating [9, 21]: 30
- Morningglory plant response rating [10, 14]: 95
- Plant response rating, Morningglory [10, 15]: 100
- Plant response rating, Morningglory [10, 16]: 100
- Plant response rating, Morningglory [10, 17]: 98
- Plant response rating, Morningglory [10, 18]: 100
- Plant response rating, Morningglory [10, 19]: 100
- Morningglory plant response rating [10, 20]: 100
- Morningglory plant response rating [10, 21]: 100
- Lambsquarters plant response rating [11, 14]: 90
- Plant response rating, Lambsquarters [11, 15]: 98
- Plant response rating, Lambsquarters [11, 16]: 98
- Plant response rating, Lambsquarters [11, 17]: 70
- Plant response rating, Lambsquarters [11, 18]: 90
- Plant response rating, Lambsquarters [11, 19]: 95
- Lambsquarters plant response rating [11, 20]: 95
- Lambsquarters plant response rating [11, 21]: 95
- Blackgrass plant response rating [12, 14]: 65
- Plant response rating, Blackgrass [12, 15]: 85
- Plant response rating, Blackgrass [12, 16]: 90
- Plant response rating, Blackgrass [12, 17]: 85
- Plant response rating, Blackgrass [12, 18]: 90
- Plant response rating, Blackgrass [12, 19]: 90
- Blackgrass plant response rating [12, 20]: 98
- Blackgrass plant response rating [12, 21]: 80
- Oat, Wild plant response rating [13, 14]: 80
- Plant response rating, Oat, Wild [13, 15]: 90
- Plant response rating, Oat, Wild [13, 16]: 98
- Oat, Wild plant response rating [13, 21]: 75
- Kochia plant response rating (kochia (Kochia scoparia); [14]): 95
- Plant response rating, Kochia (kochia (Kochia scoparia); [15]): 85
- Plant response rating, Kochia (kochia (Kochia scoparia); [16]): 90
- Kochia plant response rating (kochia (Kochia scoparia); [21]): 85
